Test system: JAK
Test: Biochemical Kinase Assay Protocol (JAK)
Settings: compound list; + = noted target activity, number of * = preference
Experimental: Biochemical Kinase Assay Protocol (JAK, TrkA, Syk, Tyk2)
Reagent: Base Reaction buffer; 20 mM Hepes (pH 7.5), 10 mM MgCl2, 1 mM EGTA, 0.02% Brij™ 35, 0.02 mg/ml BSA, 0.1 mM Na3VO4, 2 mM DTT, 1% DMSO, where required cofactors are added individually to each kinase reaction.
• 1. Prepare indicated substrate in freshly prepared Base Reaction Buffer • 2. Deliver any required cofactors to the substrate solution above • 3. Deliver indicated kinase (JAK or TrkA) into the substrate solution and gently mix • 4. Deliver compounds in DMSO into the kinase reaction mixture by Acoustic technology (Echo550; nanoliter range), incubate for 20 minutes at room temperature • 5. Deliver 33P-ATP into the reaction mixture to initiate the reaction. • 6. Incubate kinase reaction for 2 hours at room temperature • 7. Reactions are spotted onto P81 ion exchange paper • 8. Detect kinase activity by filter-binding method. PDE4B Phosphodiesterase Assay

SMILES	Activity Note: JAK
CCC(CC)Nc1nc(Nc2cc(C)c3c(c2)C(C)(C)OB3O)ncc1C [3,3,7-trimethyl-5-((5-methyl-4-(pentan-3-ylamino)pyrimidin-2-yl)amino)benzo[c][1,2]oxaborol-1(3H)-ol]	JAK+***
Cc1cnc(Nc2cc(C)c3c(c2)C(C)(C)OB3O)nc1Nc1ccccc1 [3,3,7-trimethyl-5-((5-methyl-4-(phenylamino)pyrimidin-2-yl)amino)benzo[c][1,2]oxaborol-1(3H)-ol]	JAK+***
CCC(CC)Nc1nc(Nc2ccc3c(c2)C(C)(C)OB3O)ncc1C [3,3-dimethyl-5-((5-methyl-4-(pentan-3-ylamino)pyrimidin-2-yl)amino)benzo[c][1,2]oxaborol-1(3H)-ol]	JAK+***
Cc1cnc(Nc2ccc3c(c2)C(C)(C)OB3O)nc1Nc1ccccc1 [3,3-dimethyl-5-((5-methyl-4-(phenylamino)pyrimidin-2-yl)amino)benzo[c][1,2]oxaborol-1(3H)-ol]	JAK+***
Cc1cnc(Nc2ccc3c(c2)B(O)OC3(C)C)nc1Nc1cccc(S(C)(=O)=O)c1 [3,3-dimethyl-6-((5-methyl-4-((3-(methylsulfonyl)phenyl)amino)pyrimidin-2-yl)amino)benzo[c][1,2]oxaborol-1(3H)-ol]	JAK+**
CCC(CC)Nc1nc(Nc2cc(C)c3c(c2)C(C)OB3O)ncc1C (centres unmarked) [3,7-dimethyl-5-((5-methyl-4-(pentan-3-ylamino)pyrimidin-2-yl)amino)benzo[c][1,2]oxaborol-1(3H)-ol]	JAK+***
CCC(CC)Nc1nc(Nc2ccc3c(c2)C(C)OB3O)ncc1C (centres unmarked) [3-methyl-5-((5-methyl-4-(pentan-3-ylamino)pyrimidin-2-yl)amino)benzo[c][1,2]oxaborol-1(3H)-ol]	JAK+***
Cc1cnc(Nc2ccc3c(c2)C(C)OB3O)nc1Nc1ccccc1 (centres unmarked) [3-methyl-5-((5-methyl-4-(phenylamino)pyrimidin-2-yl)amino)benzo[c][1,2]oxaborol-1(3H)-ol]	JAK+***
Cc1cnc(Nc2ccc3c(c2)C(C)(C)OB3O)nc1NC1CCCC1 [5-((4-(cyclopentylamino)-5-methylpyrimidin-2-yl)amino)-3,3-dimethylbenzo[c][1,2]oxaborol-1(3H)-ol]	JAK+***
Cc1cnc(Nc2ccc3c(c2)C(C)OB3O)nc1NC1CCCC1 (centres unmarked) [5-((4-(cyclopentylamino)-5-methylpyrimidin-2-yl)amino)-3-methylbenzo[c][1,2]oxaborol-1(3H)-ol]	JAK+***
Cc1cnc(Nc2cc(C)c3c(c2)COB3O)nc1NC1CCCC1 [5-((4-(cyclopentylamino)-5-methylpyrimidin-2-yl)amino)-7-methylbenzo[c][1,2]oxaborol-1(3H)-ol]	JAK+***
CCc1cc(Nc2nccc(NC3CCCC3)n2)cc2c1B(O)OC2 [5-((4-(cyclopentylamino)pyrimidin-2-yl)amino)-7-ethylbenzo[c][1,2]oxaborol-1(3H)-ol]	JAK+**
Cc1cc(Nc2ncc(Cl)c(NC3CCCC3)n2)cc2c1B(O)OC2(C)C [5-((5-chloro-4-(cyclopentylamino)pyrimidin-2-yl)amino)-3,3,7-trimethylbenzo[c][1,2]oxaborol-1(3H)-ol]	JAK+***
CC1(C)OB(O)c2ccc(Nc3ncc(Cl)c(NC4CCCC4)n3)cc21 [5-((5-chloro-4-(cyclopentylamino)pyrimidin-2-yl)amino)-3,3-dimethylbenzo[c][1,2]oxaborol-1(3H)-ol]	JAK+***
CC1OB(O)c2ccc(Nc3ncc(Cl)c(NC4CCCC4)n3)cc21 (centres unmarked) [5-((5-chloro-4-(cyclopentylamino)pyrimidin-2-yl)amino)-3-methylbenzo[c][1,2]oxaborol-1(3H)-ol]	JAK+***
OB1OCc2cc(Nc3ncc(Cl)c(NC4CCCC4)n3)cc(C(F)(F)F)c21 [5-((5-chloro-4-(cyclopentylamino)pyrimidin-2-yl)amino)-7-(trifluoromethyl)benzo[c][1,2]oxaborol-1(3H)-ol]	JAK+***
CCc1cc(Nc2ncc(Cl)c(NC3CCCC3)n2)cc2c1B(O)OC2 [5-((5-chloro-4-(cyclopentylamino)pyrimidin-2-yl)amino)-7-ethylbenzo[c][1,2]oxaborol-1(3H)-ol]	JAK+***
Cc1cc(Nc2ncc(Cl)c(NC3CCCC3)n2)cc2c1B(O)OC2 [5-((5-chloro-4-(cyclopentylamino)pyrimidin-2-yl)amino)-7-methylbenzo[c][1,2]oxaborol-1(3H)-ol]	JAK+***
CCC(CC)Nc1nc(Nc2cc3c(c(C(F)(F)F)c2)B(O)OC3)ncc1C [5-((5-methyl-4-(pentan-3-ylamino)pyrimidin-2-yl)amino)-7-(trifluoromethyl)benzo[c][1,2]oxaborol-1(3H)-ol]	JAK+***
Cc1cnc(Nc2cc3c(c(C(F)(F)F)c2)B(O)OC3)nc1Nc1ccccc1 [5-((5-methyl-4-(phenylamino)pyrimidin-2-yl)amino)-7-(trifluoromethyl)benzo[c][1,2]oxaborol-1(3H)-ol]	JAK+***
Cc1cnc(Nc2ccc3c(c2)B(O)OC3)nc1N[C@H]1CC[C@H](CO)CC1 [6-((4-(((1r,4r)-4-(hydroxymethyl)cyclohexyl)amino)-5-methylpyrimidin-2-yl)amino)benzo[c][1,2]oxaborol-1(3H)-ol]	JAK+*
Cc1cnc(Nc2ccc3c(c2)B(O)OC3)nc1NC1CCCCC1 [6-((4-(cyclohexylamino)-5-methylpyrimidin-2-yl)amino)benzo[c][1,2]oxaborol-1(3H)-ol]	JAK+*
Cc1cnc(Nc2ccc3c(c2)CCOB3O)nc1NC1CCCC1 [6-((4-(cyclopentylamino)-5-methylpyrimidin-2-yl)amino)-3,4-dihydro-1H-benzo[c][1,2]oxaborinin-1-ol]	JAK+***
CCC(CC)Nc1nc(Nc2cc(Cl)c3c(c2)COB3O)ncc1C [7-chloro-5-((5-methyl-4-(pentan-3-ylamino)pyrimidin-2-yl)amino)benzo[c][1,2]oxaborol-1(3H)-ol]	JAK+***

Next, values leading:

Activity Note: JAK	SMILES
JAK+*	Cc1cnc(Nc2cc(C)c3c(c2)CCOB3O)nc1NC1CCCC1 [6-((4-(cyclopentylamino)-5-methylpyrimidin-2-yl)amino)-8-methyl-3,4-dihydro-1H-benzo[c][1,2]oxaborinin-1-ol]
JAK+*	CCCNc1nc(Nc2ccc3c(c2)B(O)OC3)ncc1I [6-((5-iodo-4-(propylamino)pyrimidin-2-yl)amino)benzo[c][1,2]oxaborol-1(3H)-ol]
JAK+*	Cc1cnc(Nc2ccc3c(c2)B(O)OC3)nc1NC1CCN(C)CC1 [6-((5-methyl-4-((1-methylpiperidin-4-yl)amino)pyrimidin-2-yl)amino)benzo[c][1,2]oxaborol-1(3H)-ol]
JAK+*	Cc1cnc(Nc2ccc3c(c2)B(O)OC3)nc1Nc1cccc(S(C)(=O)=O)c1 [6-((5-methyl-4-((3-(methylsulfonyl)phenyl)amino)pyrimidin-2-yl)amino)benzo[c][1,2]oxaborol-1(3H)-ol]
JAK+**	Cc1cnc(Nc2ccc3c(c2)B(O)OC3)nc1NC1CCC(C)CC1 (centres unmarked) [6-((5-methyl-4-((4-methylcyclohexyl)amino)pyrimidin-2-yl)amino)benzo[c][1,2]oxaborol-1(3H)-ol]
JAK+*	CCC(CC)Nc1nc(Nc2ccc3c(c2)B(O)OC3)ncc1C [6-((5-methyl-4-(pentan-3-ylamino)pyrimidin-2-yl)amino)benzo[c][1,2]oxaborol-1(3H)-ol]
JAK+***	CCC(CC)Nc1nc(Nc2cc(Cl)c3c(c2)C(C)(C)OB3O)ncc1C [7-chloro-3,3-dimethyl-5-((5-methyl-4-(pentan-3-ylamino)pyrimidin-2-yl)amino)benzo[c][1,2]oxaborol-1(3H)-ol]
JAK+***	Cc1cnc(Nc2cc(Cl)c3c(c2)C(C)(C)OB3O)nc1Nc1ccccc1 [7-chloro-3,3-dimethyl-5-((5-methyl-4-(phenylamino)pyrimidin-2-yl)amino)benzo[c][1,2]oxaborol-1(3H)-ol]
JAK+***	CC1(C)OB(O)c2c(Cl)cc(Nc3ncc(Cl)c(NC4CCCC4)n3)cc21 [7-chloro-5-((5-chloro-4-(cyclopentylamino)pyrimidin-2-yl)amino)-3,3-dimethylbenzo[c][1,2]oxaborol-1(3H)-ol]
JAK+***	OB1OCc2cc(Nc3ncc(Cl)c(NC4CCCC4)n3)cc(Cl)c21 [7-chloro-5-((5-chloro-4-(cyclopentylamino)pyrimidin-2-yl)amino)benzo[c][1,2]oxaborol-1(3H)-ol]
JAK+***	Cc1cnc(Nc2cc(Cl)c3c(c2)COB3O)nc1Nc1ccccc1 [7-chloro-5-((5-methyl-4-(phenylamino)pyrimidin-2-yl)amino)benzo[c][1,2]oxaborol-1(3H)-ol]
JAK+***	CCc1cc(Nc2ncc(C)c(NC(CC)CC)n2)cc2c1B(O)OC2 [7-ethyl-5-((5-methyl-4-(pentan-3-ylamino)pyrimidin-2-yl)amino)benzo[c][1,2]oxaborol-1(3H)-ol]
JAK+***	CCc1cc(Nc2ncc(C)c(Nc3ccccc3)n2)cc2c1B(O)OC2 [7-ethyl-5-((5-methyl-4-(phenylamino)pyrimidin-2-yl)amino)benzo[c][1,2]oxaborol-1(3H)-ol]
JAK+*	Cc1cnc(Nc2ccc3c(c2F)B(O)OC3)nc1Nc1cccc(S(C)(=O)=O)c1 [7-fluoro-6-((5-methyl-4-((3-(methylsulfonyl)phenyl)amino)pyrimidin-2-yl)amino)benzo[c][1,2]oxaborol-1(3H)-ol]

Reference: patent publication US12358932B2, “Chemical compounds” (BORAH, INC., priority 2019, dated 2025)
